From patent US9109041B2, “Analog compounds of analgesic peptides derived from the venom of crotalus durissus terrificus snakes, their uses, compositions, methods of preparation and purification” (priority 2004, dated 2015)

Tests used:
[1] = system: carrageenin-induced hyperalgesia; assay: rat paw pressure test, carrageenin-induced hyperalgesia; format: in vivo
Procedure: The antinociceptive effect of the synthetic peptide was evaluated in the inflammatory hyperalgesia induced by carrageenin. […] Saline, administered by the same route was used as control.
As determined in the PGE2 model, the participation of opioid receptors in the antinociceptive effect of the peptide SEQ ID NO: 2 in the carrageenin-induced hyperalgesia (Table 10) was investigated. Therefore, the animals were treated with CTOP, a specific μ receptor antagonist (20 μg/paw), nor-BNI, a specific κ receptor antagonist (50 μg/paw) or with ICI 174.864, a specific δ receptor antagonist (10 μg/paw), injected by i.pl. route concomitantly to carrageenin. Peptide was administered in the dose of 1 μg/kg, orally, immediately before carrageenin.

[2] = system: hyperalgesia induced by chronic constriction of the sciatic nerve; assay: hyperalgesia induced by chronic constriction of the sciatic nerve (rat paw pressure test); format: in vivo; conditions: for pain threshold, BM: before surgery; for pain threshold, FM 1 h: day 14, 1 h after peptide; for pain threshold, FM 3 h: day 14, 3 h after peptide; for pain threshold, FM 24 h: day 14, 24 h after peptide; for pain threshold, FM 48 h: day 14, 48 h after peptide; for pain threshold, FM 72 h: day 14, 72 h after peptide; for pain threshold, FM 96 h: day 14, 96 h after peptide; for pain threshold, IM: day 14 after surgery, before peptide
Procedure: For the induction of neuropathic pain, surgery was performed in the sciatic nerve, in accordance with the method described by Bennett, G. J and Xie, Y. K. (Pain, 33:87-107, 1988). The animals were anesthetized with halothane. The sciatic nerve was exposed in the middle region of the thigh, moving away the femoral biceps muscle. Close to the trifurcation of the sciatic nerve, 7 mm of distance from the trifurcation, 4 loose ligations were performed (chromed catgut 4-0) around it, distant from each other in approximately 1 mm. The bindings were performed along the nerve, up to 4-5 mm from the initial point. The incision was sutured in layers, using silk suture thread number 4-0.
The test was applied before (BM-basal measurement) and on the 14th day after the surgery, to characterize the development of neuropathic pain.
The results were analyzed by comparing the means of the basal and initial measurements or by comparing the means of the initial and final measurements or, when determined, through the comparison of the means obtained in the different experimental groups.
For this purpose, the animals were treated with CTOP, a specific μ receptor antagonist (20 μg/paw), nor-BNI, a specific κ receptor antagonist (50 μg/paw) or with ICI 174,864, a specific δ receptor antagonist (10 μg/paw). The antagonists were injected, by intraplantar route. The peptide was administered in the dose of 5 μg/kg, orally, immediately before the injection of the opioid antagonists.
The results were analyzed comparing the mean values of the basal and initial measurements, or of the initial and final measurements or, when determined, by comparing the mean values obtained in the different experimental groups (Tables 15 and 16).

Xaa-Phe-Ser-Pro-Glu-Asn-Cys-Gln-Gly-Glu-Ser-Gln-Pro-Cys [SEQ ID NO: 2]
pain threshold, FM (g) ± S.E.M ([1]; 1 μg/kg p.o. + CTOP 20 μg/paw i.pl. with carrageenin, after carrageenin): 126 ± 2.92 g | pain threshold, IM (g) ± S.E.M. ([1]; 1 μg/kg p.o. + CTOP 20 μg/paw i.pl., before carrageenin): 76 ± 1.87 g | pain threshold, FM (g) ± S.E.M ([1]; 1 μg/kg p.o. + ICI174,864 10 μg/paw i.pl. with carrageenin, after carrageenin): 128 ± 2.00 g | pain threshold, IM (g) ± S.E.M. ([1]; 1 μg/kg p.o. + ICI174,864 10 μg/paw i.pl., before carrageenin): 77 ± 1.22 g | pain threshold, FM (g) ± S.E.M ([1]; 1 μg/kg p.o. + nor-BNI 50 μg/paw i.pl. with carrageenin, after carrageenin): 56 ± 1.00 g | pain threshold, IM (g) ± S.E.M. ([1]; 1 μg/kg p.o. + nor-BNI 50 μg/paw i.pl., before carrageenin): 78 ± 2.00 g | pain threshold, FM (g) ± S.E.M ([1]; 1 μg/kg p.o., 3 h after carrageenin 200 μg/paw (Table 9)): 116 ± 1.87 g | pain threshold, FM (g) ± S.E.M ([1]; 1 μg/kg p.o., after carrageenin (Table 10)): 129 ± 1.87 g | pain threshold, IM (g) ± S.E.M. ([1]; 1 μg/kg p.o., before carrageenin (Table 9)): 77 ± 2.00 g | pain threshold, IM (g) ± S.E.M. ([1]; 1 μg/kg p.o., before carrageenin (Table 10)): 77 ± 1.22 g | opioid receptor antagonist interfering with the antinociceptive effect ([1]; peptide 1 μg/kg p.o., mu, kappa, delta antagonists i.pl.): only kappa opioid receptor antagonist was able to interfere | pain threshold, BM ([2]; 0.0016 μg/kg p.o.): 72 ± 1.22 g | pain threshold, FM 1 h ([2]; 0.0016 μg/kg p.o.): 32 ± 1.22 g | pain threshold, FM 3 h ([2]; 0.0016 μg/kg p.o.): 32 ± 1.22 g | pain threshold, FM 24 h ([2]; 0.0016 μg/kg p.o.): 33 ± 1.22 g | pain threshold, FM 48 h ([2]; 0.0016 μg/kg p.o.): 30 ± 0.00 g | pain threshold, FM 72 h ([2]; 0.0016 μg/kg p.o.): 32 ± 1.22 g | pain threshold, FM 96 h ([2]; 0.0016 μg/kg p.o.): 32 ± 1.22 g | pain threshold, IM ([2]; 0.0016 μg/kg p.o.): 33 ± 1.22 g | pain threshold, BM ([2]; 0.008 μg/kg p.o.): 74 ± 1.87 g | pain threshold, FM 1 h ([2]; 0.008 μg/kg p.o.): 34 ± 1.00 g | pain threshold, FM 3 h ([2]; 0.008 μg/kg p.o.): 30 ± 1.58 g | pain threshold, FM 24 h ([2]; 0.008 μg/kg p.o.): 30 ± 0.00 g | pain threshold, FM 48 h ([2]; 0.008 μg/kg p.o.): 33 ± 1.22 g | pain threshold, FM 72 h ([2]; 0.008 μg/kg p.o.): 31 ± 1.00 g | pain threshold, FM 96 h ([2]; 0.008 μg/kg p.o.): 32 ± 1.22 g | pain threshold, IM ([2]; 0.008 μg/kg p.o.): 33 ± 1.22 g | pain threshold, BM ([2]; 0.04 μg/kg p.o.): 71 ± 1.00 g | pain threshold, FM 1 h ([2]; 0.04 μg/kg p.o.): 29 ± 1.00 g | pain threshold, FM 3 h ([2]; 0.04 μg/kg p.o.): 30 ± 0.00 g | pain threshold, FM 24 h ([2]; 0.04 μg/kg p.o.): 31 ± 1.00 g | pain threshold, FM 48 h ([2]; 0.04 μg/kg p.o.): 33 ± 1.22 g | pain threshold, FM 72 h ([2]; 0.04 μg/kg p.o.): 33 ± 0.00 g | pain threshold, FM 96 h ([2]; 0.04 μg/kg p.o.): 33 ± 1.22 g | pain threshold, IM ([2]; 0.04 μg/kg p.o.): 33 ± 1.22 g | pain threshold, BM ([2]; 0.2 μg/kg p.o.): 73 ± 1.22 g | pain threshold, FM 1 h ([2]; 0.2 μg/kg p.o.): 51 ± 1.87 g | pain threshold, FM 3 h ([2]; 0.2 μg/kg p.o.): 56 ± 1.87 g | pain threshold, FM 24 h ([2]; 0.2 μg/kg p.o.): 52 ± 1.22 g | pain threshold, FM 48 h ([2]; 0.2 μg/kg p.o.): 54 ± 1.00 g | pain threshold, FM 72 h ([2]; 0.2 μg/kg p.o.): 53 ± 1.22 g | pain threshold, FM 96 h ([2]; 0.2 μg/kg p.o.): 33 ± 1.22 g | pain threshold, IM ([2]; 0.2 μg/kg p.o.): 31 ± 1.00 g | pain threshold, BM ([2]; 1 μg/kg p.o.): 72 ± 1.22 g | pain threshold, FM 1 h ([2]; 1 μg/kg p.o.): 73 ± 1.22 g | pain threshold, FM 3 h ([2]; 1 μg/kg p.o.): 73 ± 1.22 g | pain threshold, FM 24 h ([2]; 1 μg/kg p.o.): 71 ± 1.00 g | pain threshold, FM 48 h ([2]; 1 μg/kg p.o.): 74 ± 1.00 g | pain threshold, FM 72 h ([2]; 1 μg/kg p.o.): 71 ± 1.00 g | pain threshold, FM 96 h ([2]; 1 μg/kg p.o.): 33 ± 1.22 g
